Reference: patent publication US6406701B1, “Method and compositions for preventing or reducing HIV infection” (priority 2000, dated 2002)
Read-outs that look alike come from different tables or passages of the source.

Tests used:
HIV [1] = experiment: HIV infectivity of HUT78 cells by reverse transcriptase activity with or without 17-β-Estradiol; settings: for RT Activity: estrogen 10^−7 M
Procedure: The sensitivity of CD4^+ T-HUT78 cells to HIV viral infection was determined by measuring the activity of reverse transcriptase in cells infected in the presence/absence of 17-β-Estradiol.

LAPase = experiment: Estrogen incubation with purified LAPase preparations; assay type: biochemical; settings: purified enzyme alone
Procedure: (§1) Control cells were cultured in the absence of 17-β-Estradiol.). During the same period, LAPase in cell supernatants of control cells remain unchanged. In addition, LAPase activity was determined in supernatants of primary parental cell lines immunoprecipitated with anti-LAP-Protein G MAb 7B6 bound antibodies. […] In addition, there was no effect of estrogen incubation on LAPase activity in purified preparations of this enzyme alone.

[2] = test system: breast carcinoma parental cells; experiment: LAPase release from primary breast carcinoma parental cells after estrogen stimulation (supernatants immunoprecipitated with MAb 7B6, fluorometric assay); assay type: cell-based, human
Procedure: as §1
Primary parental breast carcinoma cells obtained from human tumour biopsies were stimulated with 100 nM 17-β-Estradiol for 24 hours or cell media alone as a control. The cell media was RPMI 1640 medium+10% FCS+100 U/ml Penicillin+100 μg/ml Streptomycin. Cell supernatants were collected and then dialyzed against PBS in seamless cellulose tubing (MW 12,400) for 12 hours at 4° C. Es-LAPase was subsequently purified from the dialyzed cell supernatants using HPLC-gel permeation followed by DEAE-Cellulose and Bestatin-Sepharose affinity Chromatography. Briefly, the cell supernatant was applied to a Bio-Sil SEC-250 column (600×7.5 mm) previously equilibrated in a buffer containing 100 mM Sodium Phosphate buffer pH 6.8, 100 mM Na2SO4, 1 μM ZnCl2 and 10% glycerol. […]
Es-LAPase activities were determined fluorometrically using leucine-b-naphthylamide as the substrate [Kuramochi, H., et al. (1987) J. Antibiot., 40,1605-1611].

HUT78 cells = experiment: Extracellular LAPase activity of HUT78 cells incubated with 17-β-Estradiol; assay type: cell-based
HIV-1 (HTLVIIIb) [3] = assay type: cell-based; settings: for Cytopathicity / Proviral Load: anti-estrogen 10^−7M combined with Mab 7B6 and thioredoxin matrices
Procedure: (§2) In the continued presence of each of the factors aforementioned, the cells were subsequently infected at a multiplicity of two infective viral particles per cell for two hours at 25° C. with constant agitation in a final volume of 1.0 ml. […] Syncytium formation was evaluated by light microscopy on days 3, 5 and 7.

HIV-1 (HTLVIIIb) [4] = assay type: cell-based; settings: Day 5 post-infection; anti-estrogen 10^−7M combined with Mab 7B6 and thioredoxin matrices
Procedure: as §2
Prior to infection, HUT78 cells were washed three times with PBS and the cell viability was determined. Infection was performed as described above. At indicated time intervals, 1.0 mil aliquots of were taken and p24 antigen quantified using a commercial ELISA kit (p24 Antigen Capture ELISA, ABBOTT Diagnostics Division), following the instructions of the manufacturer.

es-LAPase = es-LAPase enzyme kinetics and inhibition (l-leucine-β-naphthylamide, 330 nm); assay type: biochemical, human; settings: for es-LAPase reaction rate versus control es-LAPase (FIG. 3): 167 μM Bestatin, 167 μM reduced glutathione, 17 μM reduced thioredoxin; for mode of es-LAPase inhibition: from Vmax, Km, Ki of Table 4
Procedure: The kinetic assays were performed using a Spectronic Genesys 5 spectrophotometer from Milton Roy (Rochester, N.Y.). Absorbance was recorded every sixty seconds, over a period of 30 min. Enzyme kinetic assays were performed using 8.0×10^−2 U of es-LAPase in a final reaction volume of 600 μl and triplicate samples. […] A corresponding blank without es-LAPase was used as baseline. Both of the cuvettes were transferred to the spectrophotometer where the 1-leucine-β-naphthylamide solution was added last, marking time zero of the reaction.

HIV [5] = settings: Tamoxifen concentrations of 10^−6M or higher; cited from earlier work
[6] = es-LAPase with 167 μM inhibitor

Q: What does the source list for 17-β-Estradiol?
A: HIV viral infectivity (RT activity) relative to control cells infected in the absence of estrogen (HIV [1]; 3 days and 5 days post infection): approximately 4 times; RT Activity (HIV [1]; Day 0 (Infection)): 0.68 cpm × 10^2/10 μl; RT Activity (HIV [1]; Day 3 (Post Infection)): 72.42 cpm × 10^2/10 μl; RT Activity (HIV [1]; Day 5 (Post Infection)): 124.44 cpm × 10^2/10 μl; effect of estrogen incubation on LAPase activity in purified preparations of the enzyme (LAPase): no effect; extracellular LAPase activity of estrogen stimulated cells ([2]; 100 nM, 24 hours, supernatants immunoprecipitated with anti-LAP-Protein G MAb 7B6): 7.7×10^−5 U/ml; estrogen concentration of maximum release of LAPase ([2]; breast carcinoma parental cells, 24 hours of incubation): 100 nM; concentration of maximum stimulation of LAPase release (HUT78 cells): 10^−7 M; LAPase activity, 17-β-Estradiol Stimulation (HUT78 cells; [β-Estradiol] 10^−5 M): 10.8 U* × 10^−5/ml; LAPase activity, 17-β-Estradiol Stimulation (HUT78 cells; [β-Estradiol] 10^−6 M): 20.4 U* × 10^−5/ml; LAPase activity, 17-β-Estradiol Stimulation (HUT78 cells; [β-Estradiol] 10^−7 M): 148.6 U* × 10^−5/ml; LAPase activity, 17-β-Estradiol Stimulation (HUT78 cells; [β-Estradiol] 10^−8 M): 110.7 U* × 10^−5/ml

Q: With C#C[C@]1(O)CC[C@H]2[C@@H]3CC[C@H]4C[C@@H](O)CC[C@@H]4[C@H]3CC[C@@]21C [3β,5α-tetrahydro Norethisterone] as the molecule, how does the Cytopathicity (HIV-1 (HTLVIIIb) [3]; Day 5 post-infection) read?
A: 0 Syncytia/well

Q: And the “Proviral Load” value (HIV-1 (HTLVIIIb) [3]; Day 5 post-infection)?
A: 2 copies

Q: And the P24 (HIV-1 (HTLVIIIb) [4])?
A: 0 nmol/mL

Q: For C[C@]12CCC(=O)C(O)=C1CC[C@@H]1[C@@H]2CC[C@]2(C)C(=O)CC[C@@H]12 [4-hydroxyandrostenedione], which Cytopathicity (HIV-1 (HTLVIIIb) [3]; Day 5 post-infection) is on record?
A: 4.0 ± 0.4 Syncytia/well

Q: And the “Proviral Load” value (HIV-1 (HTLVIIIb) [3]; Day 5 post-infection)?
A: 12 copies

Q: And the P24 (HIV-1 (HTLVIIIb) [4])?
A: 0.02 ± .001 nmol/mL

Q: What does the source list for CC(C)C[C@H](NC(=O)[C@@H](O)[C@H](N)Cc1ccccc1)C(=O)O [Bestatin]?
A: es-LAPase reaction rate versus control es-LAPase (FIG. 3) (es-LAPase): clearly inhibits; Vmax (es-LAPase; [6]): 34.0 ± 3.9 10^−6 M/min; mode of es-LAPase inhibition (es-LAPase): competitive; HIV-1 proviral copies (HIV-1 (HTLVIIIb) [3]; Day 0 post-infection, 120 μg/ml): 0 copies; HIV-1 proviral copies (HIV-1 (HTLVIIIb) [3]; Day 3 post-infection, 120 μg/ml): 7 ± 2 copies; HIV-1 proviral copies (HIV-1 (HTLVIIIb) [3]; Day 5 post-infection, 120 μg/ml): 29 ± 3 copies; HIV-1 proviral copies (HIV-1 (HTLVIIIb) [3]; Day 7 post-infection, 120 μg/ml): 457 ± 12 copies

Q: Which results are given for CC/C(=C(/c1ccc(OCCN(C)C)cc1)c1cccc(O)c1)c1ccccc1 [Droloxifene]?
A: Cytopathicity (HIV-1 (HTLVIIIb) [3]; Day 5 post-infection): 5.2 ± 0.6 Syncytia/well; Proviral Load (HIV-1 (HTLVIIIb) [3]; Day 5 post-infection): 14 copies; P24 (HIV-1 (HTLVIIIb) [4]): 0.04 ± .003 nmol/mL

Q: Which “es-LAPase reaction rate versus control es-LAPase (FIG. 3)” value (es-LAPase) does the source give for N[C@@H](CCC(=O)N[C@@H](CS)C(=O)NCC(=O)O)C(=O)O [Glutathione] here?
A: significant slower rates

Q: What about the Vmax (es-LAPase; [6]) of the same molecule?
A: 17.2 ± 1.5 10^−6 M/min

Q: And the “mode of es-LAPase inhibition” value (es-LAPase)?
A: noncompetitive

Q: For CC/C(=C(\c1ccc(I)cc1)c1ccc(OCCN2CCCC2)cc1)c1ccccc1 [Idoxifene], which Cytopathicity (HIV-1 (HTLVIIIb) [3]; Day 5 post-infection) is on record?
A: 0 Syncytia/well

Q: What about the “Proviral Load” value (HIV-1 (HTLVIIIb) [3]; Day 5 post-infection) of the same molecule?
A: 0 copies

Q: And the P24 (HIV-1 (HTLVIIIb) [4])?
A: 0 nmol/mL

Q: Which Cytopathicity (HIV-1 (HTLVIIIb) [3]; Day 5 post-infection) does the source give for O=C(c1ccc(OCCN2CCCCC2)cc1)c1c(-c2ccc(O)cc2)sc2cc(O)ccc12 [Raloxifene] here?
A: 3.3 ± 0.1 Syncytia/well

Q: And the “Proviral Load” value (HIV-1 (HTLVIIIb) [3]; Day 5 post-infection)?
A: 8 copies

Q: What about the P24 (HIV-1 (HTLVIIIb) [4]) of the same molecule?
A: 0.01 ± .002 nmol/mL

Q: Which results are given for CC/C(=C(\c1ccccc1)c1ccc(OCCN(C)C)cc1)c1ccccc1 [Tamoxifen]?
A: Cytopathicity (HIV-1 (HTLVIIIb) [3]; Day 5 post-infection): 0 Syncytia/well; Proviral Load (HIV-1 (HTLVIIIb) [3]; Day 5 post-infection): 0 copies; P24 (HIV-1 (HTLVIIIb) [4]): 0 nmol/mL; inhibition of HIV infection (HIV [5]): incomplete inhibition

B1: Thioredoxin: Human Thioredoxin purified from CD4+ T MP6 cells; uncompetitive inhibitor of es-LAPase; also linked to EDC/DADPA matrix (protein, UniProt P10599 2-105, looked up)
Thioredoxin: VKQIESKTAFQEALDAAGDKLVVVDFSATWCGPCKMIKPFFHSLSEKYSNVIFLEVDVDDCQDVASECEVKCMPTFQFFKKGQKVGEFSGANKEKLEATINELV
modifications: linked to EDC/DADPA matrix
Q: Which “es-LAPase reaction rate versus control es-LAPase (FIG. 3)” value (es-LAPase) does the source give for B1 here?
A: significant slower rates

Q: And the Km (es-LAPase; es-LAPase with 17 μM inhibitor)?
A: 23.4 ± 0.6 µM

Q: What about the Vmax (es-LAPase; es-LAPase with 17 μM inhibitor) of the same molecule?
A: 5.31 ± 0.02 10^−6 M/min

Q: What about the “mode of es-LAPase inhibition” value (es-LAPase) of the same molecule?
A: uncompetitive

Q: What about the HIV-1 proviral copies (HIV-1 (HTLVIIIb) [3]; Day 0 post-infection, matrix-bound, 40 ng/5 ml) of the same molecule?
A: 0 copies

Q: What about the HIV-1 proviral copies (HIV-1 (HTLVIIIb) [3]; Day 3 post-infection, matrix-bound, 40 ng/5 ml) of the same molecule?
A: 4 ± 1 copies

Q: What about the HIV-1 proviral copies (HIV-1 (HTLVIIIb) [3]; Day 5 post-infection, matrix-bound, 40 ng/5 ml) of the same molecule?
A: 12 ± 3 copies

Q: And the HIV-1 proviral copies (HIV-1 (HTLVIIIb) [3]; Day 7 post-infection, matrix-bound, 40 ng/5 ml)?
A: 122 ± 8 copies

Q: And the “number of HIV-1 proviral copies compared to control cells (in words)” value (HIV-1 (HTLVIIIb) [3]; matrix-bound, incubated with HUT 78 cells 7 hours prior to infection)?
A: significantly reduces
